Results taken from US11730712B2, “Functionalized long-chain hydrocarbon mono- and di-carboxylic acids and derivatives thereof, and their use for the prevention or treatment of disease” (ESPERVITA THERAPEUTICS, INC., priority 2021, dated 2023).
“And” between values parts separate entries of the source, which are not always exact repeats. Identical values can stand only once. Like-named read-outs stand apart in the source and are kept apart here.

Assays:
human ACLY = biological target: T1, human ACLY (Homo sapiens, UniProt P53396); assay: ATP-citrate lyase (ACLY) enzymatic assay (ADP-Glo); type: biochemical; settings: recombinant human ACLY, Run 1-3, read-out: Compound IC50 (M) ACLY
T1 construct: human ACLY (P533%) (Met 1-Met 1101) expressed in Baculovirus-Insect Cells; purchased Sino Biological Inc. 11769-H07B; host or cells: Baculovirus-Insect Cells
Description: ATP citrate lyase was obtained from Sino Biological Inc. Cat #11769-H07B, Lot #LC08DE1701. It was prepared from a DNA sequence encoding the human ACLY (P533%) (Met 1-Met 1101) expressed in Baculovirus-Insect Cells, with a polyhistidine tag at the N-terminus. The recombinant human ACLY consists of 1120 amino acids and has a calculated molecular mass of 123 kDa. It migrates as an approximately 110 kDa band in SDS-PAGE under reducing conditions. The enzyme came as a lyophilized powder in sterile 20 mM Tris, 500 mM NaCl, pH 8.0, 10% glycine. Normally 5%-8% trehalose and mannitol are added as protectants before lyophilization. […]
To detect ADP produced from ACL assay, the ADP-Glo™ assay format from Promega, Madison, Wis., was used, to detect the conversion of ATP to ADP. […] This assay is performed in two steps: i) after the ACL-mediated enzymatic reaction that utilizes ATP and produces ADP, ADP-Glo™ Reagent is added to terminate the kinase reaction and deplete the remaining ATP, and ii) the Kinase Detection Reagent is added to convert ADP to ATP and allow the newly synthesized ATP to be measured using a luciferase/luciferin reaction. The light generated, measured in a luminometer, correlates to the amount of ADP generated in the ACL assay, which is indicative of ACL activity. […]

Hep3B cells = assay: Hep3B cell proliferation; type: cell-based; settings: with or without regorafenib (1.5 μM)
Source text: FIG. 36 show anti-proliferative effect of illustrative compounds of the invention in Hep3B cells.
Each bar represents the mean±the SEM, n=5. *p<0.03, **p<0.002, ***p<0.0002, ****p<0.0001, One-way ANOVA followed by Tukey's multiple comparison.

[1] = system: C57BL6J mice on high fat high fructose diet; assay: Hepatic de novo lipogenesis (14C-glucose incorporation) in murine model of NASH; type: in vivo, mouse; settings: for inhibition at 10 mg/kg / inhibition at 30 mg/kg / inhibition at 60 mg/kg: Mus musculus
Description: Experimental Protocol. FIG. 17A describes the study protocol. Mice were dosed daily for 7 days with a single dose of either Compound I-32 or Compound I-1 at a dose of 10 mg/kg, 30 mg/kg or 60 mg/kg. On the 8th day of the experiment mice receive final dose of Compound I-32 or Compound I-1, followed one hour later by an I.P. bolus of 14-C Glucose.
C57BL6J (8 weeks of age) were obtained for the Jackson Laboratory and fed a normal chow diet upon arrival. At ˜10 weeks of age, mice were given a diet containing high fat and high fructose (Rodent Diet with 40 kcal % Fat (Mostly Palm Oil), 20 kcal % fructose, and 0.02% cholesterol, obtained from Research Diets, Product Code: D19101102) and housed at thermoneutral conditions (26-29° C.). […] On the morning of day 8, animals received a final dose and after 1 hour […] (PerkinElmer) was administered at a concentration of 12 μCi per mouse in a volume of 0.1 ml in 0.9% saline I.P. One hour after ^14C-glucose was given, animals were anesthetized by I.P. injection of Ketamine/Xylazine (150 mg/12.4 mg/kg, respectively). Blood was drawn through cardiac puncture; the liver was removed, and a sample was from the left lobe and frozen in liquid nitrogen. Liver tissue was chipped on dry-ice and the weight of the chip weight recorded (30-50 mg of tissue). Liver tissue was homogenized in 1 ml of 2:1 chloroform:methanol using a bead homogenizer at 5000 rpm for 2×12 seconds. Samples were incubated with gentle shaking at 4° C. for 2 hours, vortexed for 2×12 seconds, and then centrifuge at 7000 rpm for 10 minutes at 4° C. The supernatant was transferred to a 1.5 ml Eppendorf and 200 μl of 0.9% saline was added. Samples were vortexed for 2×12 seconds and centrifuged at 3000 rpm for 10 minutes at 4° C. 200 μl of the lower organic phase was removed and added to 5 ml of scintillation fluid. The amount radioactivity in the sample was measured by scintillation counting. The number of disintegrations per minute (DPM) were determined over a 5-minute period and normalized to the amount of liver tissue. 5-10 μl of plasma obtained at termination was also counted and lipid/gram tissue counts were normalized to plasma counts. Statistical comparisons were carried out using a one-way ANOVA followed by Dunnett's post hoc test using GraphPad Prism 8 software. A p-value of less than or equal to 0.05 was used as the criterion of significance.

[2] = 10 mg/kg, read-out: % change from vehicle control, hepatic de novo lipogenesis (inhibition)
[3] = 30 mg/kg, read-out: % change from vehicle control, hepatic de novo lipogenesis (inhibition)
[4] = 60 mg/kg, read-out: % change from vehicle control, hepatic de novo lipogenesis (inhibition)

Row | SMILES | IC50 (human ACLY) | effect on proliferation (Hep3B cells) | % change from vehicle control, hepatic de novo lipogenesis (inhibition) ([1]; 10 mg/kg) | % change from vehicle control, hepatic de novo lipogenesis (inhibition) ([1]; 30 mg/kg) | % change from vehicle control, hepatic de novo lipogenesis (inhibition) ([1]; 60 mg/kg) | inhibition at 10 mg/kg ([1]; 10 mg/kg, 30 mg/kg and 100 mg/kg, all three doses tested (as printed in text), read-out: inhibition of liver lipogenesis) | inhibition at 10 mg/kg [1, 2] | inhibition at 30 mg/kg [1, 3] | inhibition at 60 mg/kg [1, 4]
1 | CC(C)(CCCCc1cccc(CCCCC(C)(C)C(=O)SCCNC(=O)CCNC(=O)[C@H](O)C(C)(C)COP(=O)(O)OP(=O)(O)OC[C@H]2O[C@@H](n3cnc4c(N)ncnc43)[C@H](O)[C@@H]2OP(=O)(O)O)c1)C(=O)O [Compound I-32-CoA, 6-[3-(5-Carboxy-5-methylhexyl)-phenyl]-2,2-dimethylhexanoic acid Coenzyme A Ester] | 9.88e-07 M and 1.22e-06 M and 1.44e-06 M |  |  |  |  |  |  |  | 
2 | CC(C)(CCCCc1cccc(CCCCC(C)(C)C(=O)O)c1)C(=O)O [Compound I-32, 6-[3-(5-carboxy-5-methylhexyl)-phenyl]-2,2-dimethylhexanoic acid] |  | anti-proliferation effect | 48.79% | 37.42% | 52.90% | ~50% | 49% | 37% | 53%
3 | CC(C)(CCCCc1ccc(CCCCC(C)(C)C(=O)SCCNC(=O)CCNC(=O)[C@H](O)C(C)(C)COP(=O)(O)OP(=O)(O)OC[C@H]2O[C@@H](n3cnc4c(N)ncnc43)[C@H](O)[C@@H]2OP(=O)(O)O)cc1)C(=O)O [Compound I-1-CoA, 6-[4-(5-carboxy-5-methylhexyl)-phenyl]-2,2-dimethylhexanoic acid Coenzyme A ester] | 3.34e-06 M and 2.28e-06 M and 2.5e-06 M |  |  |  |  |  |  |  | 
4 | CC(C)(CCCCc1ccc(CCCCC(C)(C)C(=O)O)cc1)C(=O)O [Compound I-1, 6-[4-(5-carboxy-5-methylhexyl)-phenyl]-2,2-dimethylhexanoic acid] |  | anti-proliferation effect |  | 55.65% | 68.96% |  | 17.8% | 56% | 69%
